In US20250296938A1, “Compounds that Interact with the Ras Superfamily for the Treatment of Cancers, Inflammatory Diseases, Rasopathies, and Fibrotic Disease” (SHY Therapeutics, LLC, priority 2018, published 2025):
Read-outs that look alike come from different tables or passages of the source.

Columns and labels:
Assay in all cases: Ras GTP binding domain inhibition assay (Cy3-GTP/Cy5-GTP competition)
Rac-1 = Rac-1 (Homo sapiens, UniProt P63000)
Method in brief: (§1)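 First, His-tagged protein is coated on nickel wells overnight at 4 °C. Next, compound (20 μM single point or serial dilution) is added for 3 h at room temperature, with or without Sos exchange factor in the last hour. Finally, 100 nM labelled GTP binds for 45 min and retained signal is measured.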

KRas G12D mutant = biological target: T1, KRas G12D mutant (Homo sapiens, UniProt P01116, G12D); conditions: at 20 μM
T1 construct: fused on or other part: His tag, used for capture on nickel-coated plates
Method in brief: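 His-tagged Ras immobilized on nickel-coated wells in Tris buffer (pH 7.4 or 7.0) with 1 mM MgCl2, 1 mM DTT, 1% DMSO. Compound (20 μM, or serial dilution for IC50) incubated 3 hours at room temperature, ± Sos (residues 556-1049) in final hour. Bound 100 nM Cy3-/Cy5-GTP read after 45 minutes and washing.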

Rho-A = Rho-A (Homo sapiens, UniProt P61586)
Method in brief: as §1

[1] = with SOS, read-out: Rac-1 + SOS: % inh.
[2] = without SOS, read-out: Rac-1: % inh.
[3] = with SOS, read-out: KRas G12D mutant + SOS: % inh.
[4] = without SOS, read-out: KRas G12D mutant: % inh.
[5] = with SOS, read-out: Rho-A + SOS: % inh.
[6] = without SOS, read-out: Rho-A: % inh.

Compound	inhibition at 20 µM (Rac-1; [1])	inhibition at 20 µM (Rac-1; [2])	inhibition at 20 µM (KRas G12D mutant; [3])	inhibition at 20 µM (KRas G12D mutant; [4])	inhibition at 20 µM (Rho-A; [5])	inhibition at 20 µM (Rho-A; [6])	Rac-1 + SOS: % inh. (Rac-1; at 20 μM, with SOS)	Rac-1: % inh. (Rac-1; at 20 μM, without SOS)	KRas G12D mutant + SOS: % inh. (KRas G12D mutant; with SOS)	KRas G12D mutant: % inh. (KRas G12D mutant; without SOS)	Rho-A + SOS: % inh. (Rho-A; at 20 μM, with SOS)	Rho-A: % inh. (Rho-A; at 20 μM, without SOS)
Cn1ccc(-c2sc3nc(-c4nccn4C)nc(NCC4CCOC4)c3c2-c2ccccc2)n1 (stereo not drawn) [drawing 996]	26 to 50%	1 to 25%	1 to 25%	26 to 50%	0%	26 to 50%						
Cn1ccc(-c2sc3nc(-c4nccn4C)nc(NC4CCOCC4)c3c2-c2ccccc2)n1 [drawing 997]	26 to 50%	26 to 50%	1 to 25%	1 to 25%	51 to 75%	0%						
COC1CCN(c2nc(-c3nccn3C)nc3sc(-c4ccn(C)n4)c(-c4ccccc4)c23)C1 (stereo not drawn) [drawing 998]	26 to 50%	26 to 50%	1 to 25%	1 to 25%	1 to 25%	0%						
COCC(C)Nc1nc(-c2nccn2C)nc2sc(-c3ccn(C)n3)c(-c3ccccc3)c12 (stereo not drawn) [drawing 999]	1 to 25%	1 to 25%	26 to 50%	1 to 25%	26 to 50%	0%						
COCCCN(C)c1nc(-c2nccn2C)nc2sc(-c3ccn(C)n3)c(-c3ccccc3)c12 [drawing 1000]	26 to 50%	26 to 50%	26 to 50%	51 to 75%	0%	1 to 25%						
COCCCNc1nc(-c2nccn2C)nc2sc(-c3ccn(C)n3)c(-c3ccccc3)c12 [drawing 1001]	26 to 50%	1 to 25%	26 to 50%	1 to 25%	0%	0%						
COc1cccc(-c2sc3nc(-c4nccn4C)nc(N4CCC(OC)C4)c3c2-c2cscn2)c1 (stereo not drawn) [drawing 1002]	1 to 25%	0%	51 to 75%	1 to 25%	1 to 25%	0%						
COc1ccc(-c2c(-c3ccn(C)n3)sc3nc(-c4nccn4C)nc(N4CCC(OC)C4)c23)cc1 (stereo not drawn) [drawing 1003]	0%	0%	1 to 25%	0%	26 to 50%	0%						
COCC(C)Nc1nc(-c2nccn2C)nc2sc(-c3ccn(C)n3)c(-c3ccc(OC)cc3)c12 (stereo not drawn) [drawing 1004]	0%	0%	1 to 25%	0%	1 to 25%	1 to 25%						
COCCCNc1nc(-c2nccn2C)nc2sc(-c3ccn(C)n3)c(-c3ccc(OC)cc3)c12 [drawing 1005]	0%	0%	1 to 25%	0%	51 to 75%	1 to 25%						
COCCNc1nc(-c2nccn2C)nc2sc(-c3cc(OC)ccc3Cl)c(-c3ccccc3)c12 [drawing 1006]	26 to 50%	1 to 25%	1 to 25%	26 to 50%	51 to 75%	1 to 25%						
COCCNc1nc(-c2nccn2C)nc2sc(-c3cccc(OC)c3Cl)c(-c3ccccc3)c12 [drawing 1007]	26 to 50%	51 to 75%	76 to 100%	1 to 25%	51 to 75%	51 to 75%						
COCCNc1nc(-c2cn(C)cn2)nc2sc(-c3ccccc3Cl)c(-c3ccc(OC)cc3)c12 [drawing 1008]	26 to 50%	26 to 50%	76 to 100%	26 to 50%	0%	0%						
COCCNc1nc(-c2nccn2C)nc2sc(-c3cccc(OC)c3Cl)c(-c3ccc(OC)cc3)c12 [drawing 1009]	51 to 75%	26 to 50%	51 to 75%	1 to 25%	26 to 50%	26 to 50%						
COCCNc1nc(-c2nccn2C)nc2sc(-c3cccc(OC)c3)c(-c3ccc(OC)cc3)c12 [drawing 1010]	26 to 50%	1 to 25%	76 to 100%	51 to 75%	0%	0%						
COCCNc1nc(-c2nccn2C)nc2sc(-c3ccccc3Cl)c(-c3ccc(OC)cc3)c12 [drawing 1011]	26 to 50%	1 to 25%	76 to 100%	26 to 50%	0%	0%						

Compound	inhibition at 20 µM (Rac-1; [1])	inhibition at 20 µM (Rac-1; [2])	inhibition at 20 µM (KRas G12D mutant; [3])	inhibition at 20 µM (KRas G12D mutant; [4])	inhibition at 20 µM (Rho-A; [5])	inhibition at 20 µM (Rho-A; [6])	Rac-1 + SOS: % inh. (Rac-1; at 20 μM, with SOS)	Rac-1: % inh. (Rac-1; at 20 μM, without SOS)	KRas G12D mutant + SOS: % inh. (KRas G12D mutant; with SOS)	KRas G12D mutant: % inh. (KRas G12D mutant; without SOS)	Rho-A + SOS: % inh. (Rho-A; at 20 μM, with SOS)	Rho-A: % inh. (Rho-A; at 20 μM, without SOS)
COCCNc1nc(-c2nccn2C)nc2sc(-c3cc(OC)ccc3Cl)c(-c3ccc(OC)cc3)c12 [drawing 1012]	1 to 25%	1 to 25%	26 to 50%	1 to 25%	1 to 25%	26 to 50%						
COc1cccc(-c2csc3c(O)nc(-c4nccn4C)nc23)c1Cl [drawing 1013]	26 to 50%	1 to 25%	1 to 25%	1 to 25%	1 to 25%	1 to 25%						
COc1c(O)nc(-c2ccccn2)nc1Oc1ccc(C(=O)N(C)C)cc1 [drawing 1014]	51 to 75%	51 to 75%	26 to 50%	51 to 75%	51 to 75%	51 to 75%						
COc1c(O)nc(-c2ccccn2)nc1Nc1ccccc1 [drawing 1015]	51 to 75%	51 to 75%	26 to 50%	26 to 50%	51 to 75%	51 to 75%						
CCn1cc(Nc2nc(-c3ccccn3)nc(O)c2OC)cn1 [drawing 1016]	76 to 100%	51 to 75%	26 to 50%	26 to 50%	51 to 75%	51 to 75%						
CCOc1cccc(Nc2nc(-c3ccccn3)nc(O)c2OC)c1 [drawing 1017]	76 to 100%	76 to 100%	26 to 50%	51 to 75%	51 to 75%	51 to 75%						
COc1c(F)cccc1-c1sc2nc(-c3nccn3C)nc(NC3CCC(OC)C3)c2c1-c1ccccc1 (stereo not drawn) [drawing 1021]	51 to 75%	26 to 50%	1 to 25%	1 to 25%	26 to 50%	26 to 50%						
COc1cccc(-c2sc3nc(-c4nccn4C)nc(N4CCC(OC)C4)c3c2-c2ccccc2)c1F (stereo not drawn) [drawing 1025]							B (26-50% inhibition)	B (26-50% inhibition)	C (51-75% inhibition)	A (1-25% inhibition)	B (26-50% inhibition)	B (26-50% inhibition)
COc1cccc(-c2sc3nc(-c4nccn4C)nc(N[C@H]4C[C@@H](OC)C4)c3c2-c2ccccc2)c1F [drawing 1026]	51 to 75%	51 to 75%	51 to 75%	26 to 50%	51 to 75%	51 to 75%						
CO[C@H]1C[C@@H](Nc2nc(-c3nccn3C)nc3sc(-c4cnn(C)c4)c(-c4ccccc4)c23)C1 [drawing 1027]	76 to 100%	76 to 100%	76 to 100%	51 to 75%	76 to 100%	76 to 100%						
COc1cccc(-c2sc3nc(-c4nccn4C)nc(NC4CCC(OC)C4)c3c2C)c1F (stereo not drawn) [drawing 1028]	51 to 75%	51 to 75%	51 to 75%	76 to 100%	76 to 100%	76 to 100%						
COC1CCC(Nc2nc(-c3nccn3C)nc3sc(-c4cccc5[nH]ncc45)c(C)c23)C1 (stereo not drawn) [drawing 1030]	51 to 75%	51 to 75%	51 to 75%	26 to 50%	26 to 50%	51 to 75%						
COCCn1ccnc1-c1nc(O)c2scc(-c3ccc(OCC(C)C)nc3)c2n1 [drawing 1033]	76 to 100%	76 to 100%	51 to 75%	51 to 75%	76 to 100%	76 to 100%						
CC(C)COc1ccc(-c2csc3c(O)nc(-c4nccn4Cc4ccccn4)nc23)cn1 [drawing 1034]	76 to 100%	76 to 100%	51 to 75%	76 to 100%	76 to 100%	76 to 100%						
COc1cccc(Cn2ccnc2-c2nc(O)c3scc(-c4ccc(OCC(C)C)nc4)c3n2)c1 [drawing 1035]	76 to 100%	76 to 100%	51 to 75%	51 to 75%	51 to 75%	76 to 100%						
